Assay: physchem
Description: Dissociation constant, pKa of the compound by UV spectrophotometric analysis

CCS(=O)(=O)Nc1ccc(Nc2c3ccccc3nc3ccccc23)cc1 and CCCS(=O)(=O)Nc1ccc(Nc2c3ccccc3nc3ccccc23)cc1 are within 0.2 log units of each other in pKa: 7.19 for the first, 7.2 for the second.

CCCCNC(=O)c1cccc2c(Nc3ccc(NS(C)(=O)=O)cc3OC)c3ccccc3nc12 and CCCCNC(=O)c1cccc2c(Nc3ccc(NS(=O)(=O)CCC)cc3OC)c3ccccc3nc12 are within 0.2 log units of each other in pKa: 6.36 for the first, 6.35 for the second.

CCCS(=O)(=O)Nc1ccc(Nc2c3ccccc3nc3ncccc23)c(OC)c1 and CCCCS(=O)(=O)Nc1ccc(Nc2c3ccccc3nc3ncccc23)c(OC)c1 are within 0.2 log units of each other in pKa: 6.04 for the first, 6.06 for the second.

NC(=O)CCCCCCCCc1ccc(Nc2c3ccccc3nc3ccccc23)cc1 and NC(=O)CCCCCCCc1ccc(Nc2c3ccccc3nc3ccccc23)cc1 are the same in pKa: 7.7 for the first, 7.7 for the second.

NC(=O)CCCc1ccc(Nc2c3ccccc3nc3ccccc23)cc1 and NC(=O)CCCCc1ccc(Nc2c3ccccc3nc3ccccc23)cc1 are within 0.2 log units of each other in pKa: 7.67 for the first, 7.7 for the second.

CNC(=O)COc1ccc2c(Nc3ccc(NS(C)(=O)=O)cc3OC)c3ccccc3nc2c1 and COc1cc(NS(C)(=O)=O)ccc1Nc1c2ccccc2nc2cc(OCCO)ccc12 are within 0.2 log units of each other in pKa: 7.35 for the first, 7.36 for the second.

COc1cc(NS(C)(=O)=O)ccc1Nc1c2ccccc2nc2ncccc12 and CCS(=O)(=O)Nc1ccc(Nc2c3ccccc3nc3ncccc23)c(OC)c1 are within 0.2 log units of each other in pKa: 6.09 for the first, 6.07 for the second.

CCCCCS(=O)(=O)Nc1ccc(Nc2c3ccccc3nc3cc(NC(C)=O)ccc23)cc1 and CCCCCCS(=O)(=O)Nc1ccc(Nc2c3ccccc3nc3cc(NC(C)=O)ccc23)cc1 are within 0.2 log units of each other in pKa: 7.35 for the first, 7.34 for the second.

CCCCS(=O)(=O)Nc1ccc(Nc2c3ccccc3nc3ccccc23)c(OC)c1 and CCCCCS(=O)(=O)Nc1ccc(Nc2c3ccccc3nc3ccccc23)c(OC)c1 are within 0.2 log units of each other in pKa: 7.41 for the first, 7.39 for the second.

CCCCCCS(=O)(=O)Nc1ccc(Nc2c3ccccc3nc3ncccc23)c(OC)c1 and CCCCCCCS(=O)(=O)Nc1ccc(Nc2c3ccccc3nc3ncccc23)c(OC)c1 are within 0.2 log units of each other in pKa: 6.03 for the first, 6.04 for the second.

CCCCCCCS(=O)(=O)Nc1ccc(Nc2c3ccccc3nc3c(C(N)=O)cccc23)c(OC)c1 and CCCCCCS(=O)(=O)Nc1ccc(Nc2c3ccccc3nc3c(C(N)=O)cccc23)c(OC)c1 are the same in pKa: 6.33 for the first, 6.33 for the second.

CCS(=O)(=O)Nc1ccc(Nc2c3ccccc3nc3cc([N+](=O)[O-])ccc23)c(OC)c1 and CCCS(=O)(=O)Nc1ccc(Nc2c3ccccc3nc3cc([N+](=O)[O-])ccc23)c(OC)c1 are within 0.2 log units of each other in pKa: 5.7 for the first, 5.69 for the second.

CCCCCCS(=O)(=O)Nc1ccc(Nc2c3ccccc3nc3ccccc23)c(OC)c1 and CCCCCCCS(=O)(=O)Nc1ccc(Nc2c3ccccc3nc3ccccc23)c(OC)c1 are the same in pKa: 7.42 for the first, 7.42 for the second.

CCS(=O)(=O)Nc1ccc(Nc2c3ccccc3nc3cc(OC)ccc23)c(OC)c1 and CCCS(=O)(=O)Nc1ccc(Nc2c3ccccc3nc3cc(OC)ccc23)c(OC)c1 are within 0.2 log units of each other in pKa: 7.36 for the first, 7.38 for the second.

COc1cc(NS(C)(=O)=O)ccc1Nc1c2ccccc2nc2ccccc12 and CCS(=O)(=O)Nc1ccc(Nc2c3ccccc3nc3ccccc23)c(OC)c1 are within 0.2 log units of each other in pKa: 7.34 for the first, 7.4 for the second.

CCCCCCCS(=O)(=O)Nc1ccc(Nc2c3ccccc3nc3cc([N+](=O)[O-])ccc23)c(OC)c1 and CCCCCCS(=O)(=O)Nc1ccc(Nc2c3ccccc3nc3cc([N+](=O)[O-])ccc23)c(OC)c1 are within 0.2 log units of each other in pKa: 5.69 for the first, 5.7 for the second.

CNC(=O)c1cccc2c(Nc3ccc(NS(C)(=O)=O)cc3OC)c3ccccc3nc12 and COc1cc(NS(C)(=O)=O)ccc1Nc1c2ccccc2nc2c(C(N)=O)cccc12 are within 0.2 log units of each other in pKa: 6.36 for the first, 6.37 for the second.

CCCCS(=O)(=O)Nc1ccc(Nc2c3ccccc3nc3cc(OC)ccc23)c(OC)c1 and COc1ccc2c(Nc3ccc(NS(C)(=O)=O)cc3OC)c3ccccc3nc2c1 are within 0.2 log units of each other in pKa: 7.35 for the first, 7.39 for the second.

COc1cc(NS(C)(=O)=O)ccc1Nc1c2ccccc2nc2c(C(=O)NCC(O)CO)cccc12 (stereo unspecified) and COc1cc(NS(C)(=O)=O)ccc1Nc1c2ccccc2nc2c(C(=O)NCC(N)=O)cccc12 are within 0.2 log units of each other in pKa: 6.34 for the first, 6.18 for the second.

CCCS(=O)(=O)Nc1ccc(Nc2c3ccccc3nc3c(C(N)=O)cccc23)c(OC)c1 and CCCCS(=O)(=O)Nc1ccc(Nc2c3ccccc3nc3c(C(N)=O)cccc23)c(OC)c1 are within 0.2 log units of each other in pKa: 6.35 for the first, 6.34 for the second.

CCCCCS(=O)(=O)Nc1ccc(Nc2c3ccccc3nc3cc([N+](=O)[O-])ccc23)c(OC)c1 and CCCCS(=O)(=O)Nc1ccc(Nc2c3ccccc3nc3cc([N+](=O)[O-])ccc23)c(OC)c1 are within 0.2 log units of each other in pKa: 5.69 for the first, 5.71 for the second.

COc1cc(NS(C)(=O)=O)ccc1Nc1c2ccccc2nc2c(C(=O)N(C)C)cccc12 and CNC(=O)CNC(=O)c1cccc2c(Nc3ccc(NS(C)(=O)=O)cc3OC)c3ccccc3nc12 are within 0.2 log units of each other in pKa: 6.16 for the first, 6.2 for the second.

Compared with COc1cc(NS(C)(=O)=O)ccc1Nc1c2ccccc2nc2cc(OCC(O)CO)ccc12 (stereo unspecified), CCOc1ccc2c(Nc3ccc(NS(C)(=O)=O)cc3OC)c3ccccc3nc2c1 is higher in pKa: 7 for the first, 7.37 for the second.

CCCS(=O)(=O)Nc1ccc(Nc2c3ccccc3nc3cc(NC(C)=O)ccc23)c(OC)c1 and CCCCS(=O)(=O)Nc1ccc(Nc2c3ccccc3nc3cc(NC(C)=O)ccc23)c(OC)c1 are within 0.2 log units of each other in pKa: 7.57 for the first, 7.56 for the second.

CCCCCS(=O)(=O)Nc1ccc(Nc2c3ccccc3nc3c(C(=O)NCCCC)cccc23)c(OC)c1 and CCCCCS(=O)(=O)Nc1ccc(Nc2c3ccccc3nc3c(C(N)=O)cccc23)c(OC)c1 are the same in pKa: 6.36 for the first, 6.36 for the second.

CCS(=O)(=O)Nc1ccc(Nc2c3ccccc3nc3cc(NC(C)=O)ccc23)c(OC)c1 and COc1cc(NS(C)(=O)=O)ccc1Nc1c2ccccc2nc2cc(NC(C)=O)ccc12 are within 0.2 log units of each other in pKa: 7.54 for the first, 7.56 for the second.

CCCCS(=O)(=O)Nc1ccc(Nc2c3ccccc3nc3ccccc23)cc1 and CCCCCS(=O)(=O)Nc1ccc(Nc2c3ccccc3nc3ccccc23)cc1 are within 0.2 log units of each other in pKa: 7.18 for the first, 7.19 for the second.

CCCCCCS(=O)(=O)Nc1ccc(Nc2c3ccccc3nc3cc(NC(C)=O)ccc23)c(OC)c1 and CCCCCCCS(=O)(=O)Nc1ccc(Nc2c3ccccc3nc3cc(NC(C)=O)ccc23)c(OC)c1 are within 0.2 log units of each other in pKa: 7.54 for the first, 7.55 for the second.

COc1cc(NS(C)(=O)=O)ccc1Nc1c2ccccc2nc2cc(OCCCC(N)=O)ccc12 and CCCCOc1ccc2c(Nc3ccc(NS(C)(=O)=O)cc3OC)c3ccccc3nc2c1 are within 0.2 log units of each other in pKa: 7.36 for the first, 7.34 for the second.

Going from CCS(=O)(=O)Nc1ccc(Nc2c3ccccc3nc3c(C(N)=O)cccc23)c(OC)c1 to CCCS(=O)(=O)Nc1ccc(Nc2c3ccccc3nc3ccccc23)c(OC)c1, the pKa rises from 6.35 to 7.41.

Compared with CCCOc1ccc2c(Nc3ccc(NS(C)(=O)=O)cc3OC)c3ccccc3nc2c1, COc1cc(NS(C)(=O)=O)ccc1Nc1c2ccccc2nc2cc([N+](=O)[O-])ccc12 is lower in pKa: 7.36 for the first, 5.72 for the second.

CCCS(=O)(=O)Nc1ccc(Nc2c3ccccc3nc3cc(NC(C)=O)ccc23)cc1 and CCCCS(=O)(=O)Nc1ccc(Nc2c3ccccc3nc3cc(NC(C)=O)ccc23)cc1 are within 0.2 log units of each other in pKa: 7.33 for the first, 7.32 for the second.

NC(=O)CCCCCCc1ccc(Nc2c3ccccc3nc3ccccc23)cc1 and NC(=O)CCCCCc1ccc(Nc2c3ccccc3nc3ccccc23)cc1 are the same in pKa: 7.7 for the first, 7.7 for the second.

Compared with CCCCCCS(=O)(=O)Nc1ccc(Nc2c3ccccc3nc3ccccc23)cc1, CCCCCCCCS(=O)(=O)Nc1ccc(Nc2c3ccccc3nc3ccccc23)c(OC)c1 is higher in pKa: 7.17 for the first, 7.44 for the second.

Going from CCCCCS(=O)(=O)Nc1ccc(Nc2c3ccccc3nc3ncccc23)c(OC)c1 to CCCCCS(=O)(=O)Nc1ccc(Nc2c3ccccc3nc3cc(NC(C)=O)ccc23)c(OC)c1, the pKa rises from 6.05 to 7.54.

For CCS(=O)(=O)Nc1ccc(Nc2c3ccccc3nc3cc(NC(C)=O)ccc23)cc1, the pKa was 7.35.
